Test results from US7638532B2, “3-aryloxy-8-aza-bicyclo[3.2.1]oct-6-ene derivatives and their use as monoamine neurotransmitter re-uptake inhibitors” (NeuroSearch A/S, priority 2005, dated 2009).
Counter-ions that a name gives are not always drawn. Like-named read-outs stand apart in the source and are kept apart here.

Key:
[1] = biological target: T1, reuptake of dopamine (DA) in synaptosomes (Rattus norvegicus, UniProt P23977); experiment: Inhibition of dopamine (DA) reuptake in synaptosomes; assay type: biochemical
T1 construct: in synaptosomes as described in WO 97/16451; from tissue

[2] = biological target: T2, reuptake of noradrenaline (NA) in synaptosomes (Rattus norvegicus, UniProt Q9WTR4); experiment: Inhibition of noradrenaline (NA) reuptake in synaptosomes; assay type: biochemical
T2 construct: in synaptosomes as described in WO 97/16451; from tissue

[3] = biological target: T3, reuptake of serotonine (5-HT) in synaptosomes (Rattus norvegicus, UniProt P31652); experiment: Inhibition of serotonine (5-HT) reuptake in synaptosomes; assay type: biochemical
T3 construct: in synaptosomes as described in WO 97/16451; from tissue
T3 sequence (P31652 whole entry): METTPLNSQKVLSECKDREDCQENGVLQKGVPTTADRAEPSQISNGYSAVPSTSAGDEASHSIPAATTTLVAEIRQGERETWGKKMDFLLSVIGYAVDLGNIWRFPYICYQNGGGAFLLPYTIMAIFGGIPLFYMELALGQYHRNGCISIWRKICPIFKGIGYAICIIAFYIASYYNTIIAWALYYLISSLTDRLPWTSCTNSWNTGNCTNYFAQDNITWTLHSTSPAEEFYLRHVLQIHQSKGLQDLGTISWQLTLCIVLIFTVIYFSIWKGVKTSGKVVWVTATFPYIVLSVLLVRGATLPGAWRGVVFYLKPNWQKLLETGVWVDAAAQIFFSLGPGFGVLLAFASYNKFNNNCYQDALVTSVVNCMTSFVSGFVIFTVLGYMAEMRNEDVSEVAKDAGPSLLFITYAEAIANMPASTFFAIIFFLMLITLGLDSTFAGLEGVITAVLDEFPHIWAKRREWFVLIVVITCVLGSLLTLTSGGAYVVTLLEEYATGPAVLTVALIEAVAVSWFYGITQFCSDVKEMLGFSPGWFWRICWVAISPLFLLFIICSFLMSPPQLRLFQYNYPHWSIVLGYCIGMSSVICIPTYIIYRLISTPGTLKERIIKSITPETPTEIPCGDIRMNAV

T2 sequence (Q9WTR4 1-597): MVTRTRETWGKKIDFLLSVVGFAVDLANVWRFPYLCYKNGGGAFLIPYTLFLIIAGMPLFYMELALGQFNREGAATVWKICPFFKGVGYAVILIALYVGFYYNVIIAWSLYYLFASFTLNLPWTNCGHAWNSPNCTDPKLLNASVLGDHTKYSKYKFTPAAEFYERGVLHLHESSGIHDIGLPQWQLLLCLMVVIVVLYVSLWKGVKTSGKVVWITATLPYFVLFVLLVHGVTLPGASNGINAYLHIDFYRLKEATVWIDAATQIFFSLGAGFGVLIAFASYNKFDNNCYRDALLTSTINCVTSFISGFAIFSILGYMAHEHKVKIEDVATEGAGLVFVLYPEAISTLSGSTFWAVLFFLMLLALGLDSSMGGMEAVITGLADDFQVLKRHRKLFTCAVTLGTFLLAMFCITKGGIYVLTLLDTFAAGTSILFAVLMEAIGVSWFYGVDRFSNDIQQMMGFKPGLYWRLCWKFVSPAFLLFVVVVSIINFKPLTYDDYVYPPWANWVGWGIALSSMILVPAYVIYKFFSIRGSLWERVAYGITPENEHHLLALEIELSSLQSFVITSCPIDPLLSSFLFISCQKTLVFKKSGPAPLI
T1 sequence (P23977 whole entry): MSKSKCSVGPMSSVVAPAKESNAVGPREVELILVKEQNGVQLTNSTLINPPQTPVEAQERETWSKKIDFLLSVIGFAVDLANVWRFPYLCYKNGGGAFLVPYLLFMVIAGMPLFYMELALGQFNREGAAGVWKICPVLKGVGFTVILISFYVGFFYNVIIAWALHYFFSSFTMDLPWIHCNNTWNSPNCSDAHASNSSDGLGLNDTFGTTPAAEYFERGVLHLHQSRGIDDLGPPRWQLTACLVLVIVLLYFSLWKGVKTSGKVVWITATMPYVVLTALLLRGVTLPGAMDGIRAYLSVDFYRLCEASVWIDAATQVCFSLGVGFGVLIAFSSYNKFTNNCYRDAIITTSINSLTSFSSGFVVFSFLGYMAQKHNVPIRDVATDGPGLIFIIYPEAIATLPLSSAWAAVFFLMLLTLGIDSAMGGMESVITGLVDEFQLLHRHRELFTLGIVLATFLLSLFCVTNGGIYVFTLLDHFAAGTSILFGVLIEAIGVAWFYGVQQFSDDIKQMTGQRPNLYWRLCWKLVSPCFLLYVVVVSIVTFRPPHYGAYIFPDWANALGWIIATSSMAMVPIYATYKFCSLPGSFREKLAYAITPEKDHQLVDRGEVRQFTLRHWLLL

SMILES	melting point	IC50 [1] [µM]	IC50 [2] [µM]	IC50 [3] [µM]	other results
Clc1ccc(O[C@@H]2C[C@H]3C=C[C@@H](C2)N3)cc1Cl (as salt: hydrochloric acid salt) [1st compound of method A, exo-3-(3,4-Dichloro-phenoxy)-8-aza-bicyclo[3.2.1]oct-6-ene hydrochloric acid salt]	200 °C (dec.)	–	–	–	–
Clc1ccc(O[C@@H]2C[C@H]3C=C[C@@H](C2)N3)cc1Br (as salt: hydrochloric acid salt) [2nd compound of method A, exo-3-(3-Bromo-4-chloro-phenoxy)-8-aza-bicyclo[3.2.1]oct-6-ene hydrochloric acid salt]	240 to 243 °C	–	–	–	–
Clc1ccc(O[C@@H]2C[C@H]3C=C[C@@H](C2)N3)cc1Cl [1st compound of method A, exo-3-(3,4-Dichloro-phenoxy)-8-aza-bicyclo[3.2.1]oct-6-ene hydrochloric acid salt]	–	0.22	0.027	0.0025	–
Clc1ccc(O[C@@H]2C[C@H]3C=C[C@@H](C2)N3)cc1Br [2nd compound of method A, exo-3-(3-Bromo-4-chloro-phenoxy)-8-aza-bicyclo[3.2.1]oct-6-ene hydrochloric acid salt]	–	0.17	0.11	0.021	–
COc1ccc2cc(O[C@@H]3C[C@H]4C=C[C@@H](C3)N4C)ccc2c1 [3rd compound of method B, exo-3-(6-Methoxy-naphthalen-2-yloxy)-8-methyl-8-aza-bicyclo[3.2.1]oct-6-ene free base]	240 °C (dec.)	–	–	–	IC50 ([1]; 3H-DA, synaptosomes, read-out: DA-uptake IC50): 0.11 µM; IC50 ([2]; 3H-NA, synaptosomes, read-out: NA-uptake IC50): 0.17 µM; IC50 ([3]; 3H-5-HT, synaptosomes, read-out: 5-HT-uptake IC50): 0.48 µM
